Assay results: US9630949B2, “Oxoazetidine derivatives, process for the preparation thereof and use thereof in human medicine and in cosmetics” (GALDERMA RESEARCH & DEVELOPMENT, priority 2008, dated 2017)

Columns and labels:
hMC4R = hMC4R (Homo sapiens (Human), UniProt P32245); assay: Transactivation test: melanocortin receptors (pCRE-Luc luciferase reporter), hMC4R; type: cell-based; conditions: HEK293 transfected with pCRE-Luc and hMC4R; products tested alone (agonist), 6 h incubation; % activity vs NDP-MSH 10 nM; IA: inactive
Chain of hMC4R (P32245 whole entry): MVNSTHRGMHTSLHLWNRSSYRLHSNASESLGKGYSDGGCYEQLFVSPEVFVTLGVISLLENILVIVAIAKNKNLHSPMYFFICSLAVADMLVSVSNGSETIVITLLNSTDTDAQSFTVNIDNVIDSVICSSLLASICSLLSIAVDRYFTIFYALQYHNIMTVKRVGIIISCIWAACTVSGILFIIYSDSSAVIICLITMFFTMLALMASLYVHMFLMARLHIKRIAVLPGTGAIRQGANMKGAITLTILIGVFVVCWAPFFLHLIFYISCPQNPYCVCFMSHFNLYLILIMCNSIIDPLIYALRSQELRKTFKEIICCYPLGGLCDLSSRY
Protocol: (§1) Transactivation Test: Melanocortin Receptors
(§2) HEK293 lines are transfected with the pCRE-Luc and hMC1R, hMC3R, hMC4R or hMC5R vectors. The cells are cultured at 37° C., 5% CO2, in DMEM medium supplemented with 10% of foetal calf serum.
(§3) In the presence of an activator (agonist), the melanocortin receptor will activate the cAMP pathway which, via the CRE-Luc vector, will result in the synthesis of luciferase. After the addition of a lysis buffer containing a luminescent substrate for luciferase, it will be possible to measure the luminescence proportional to the degree of activation or of inhibition of the receptor.
(§4) The products are solubilized at 10 mM in DMSO. They are tested in the form of dose-response at a final DMSO concentration of 0.1%. The range comprising 10 points and one zero begins at 10 μM with 4-fold dilutions. For testing agonists, the products are tested alone. For determining the behaviour of antagonists, the products of interest are tested in the presence of 1 nM NDP-MSH (reference agonist). The cells are seeded at a rate of 5000 cells per well (384 well plate) in serum-free DMEM medium, and incubated overnight at 37° C., 5% CO2.
(§5) The products and the reference ligand (NDP-MSH) are added the following day, and the plates are again incubated for 6 h at 37° C., 5% CO2. After the addition of lysis buffer containing luciferin, the plates are read on a Top-Count instrument. The results are standardized as % activity using the 100% (cells+NDP-MSH at 10 nM) and 0% (cells alone) controls. An EC50 is calculated for each product using the XLFit software. The results are given in nM.

hMC1R = hMC1R (Homo sapiens (Human), UniProt Q01726); assay: Transactivation test: melanocortin receptors (pCRE-Luc luciferase reporter), hMC1R; type: cell-based; conditions: HEK293 transfected with pCRE-Luc and hMC1R; products tested alone (agonist), 6 h incubation; % activity vs NDP-MSH 10 nM; IA: inactive
Chain of hMC1R (Q01726 whole entry): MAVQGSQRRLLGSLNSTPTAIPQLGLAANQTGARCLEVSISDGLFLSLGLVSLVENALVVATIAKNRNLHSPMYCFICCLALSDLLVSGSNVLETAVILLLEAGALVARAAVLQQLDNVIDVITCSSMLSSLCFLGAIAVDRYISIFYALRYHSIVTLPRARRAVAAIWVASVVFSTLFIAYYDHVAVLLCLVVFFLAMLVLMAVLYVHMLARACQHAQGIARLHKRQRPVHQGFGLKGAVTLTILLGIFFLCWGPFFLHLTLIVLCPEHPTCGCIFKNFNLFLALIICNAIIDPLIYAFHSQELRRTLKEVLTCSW
Protocol: as §1, §2, §3, §4, §5

| Compound | EC50 (hMC4R) [µM] | EC50 (hMC1R) [µM] |
| --- | --- | --- |
| CCCCOC1(c2cccc(F)c2)CN(C(=O)[C@H](Cc2ccc(OC)cc2)NC(=O)[C@H](Cc2c[nH]cn2)NC(=O)c2ccccc2)C1 [Compound 9, N-[(S)-1-[(S)-2-[3-butoxy-3-(3-fluorophenyl)azetidin-1-yl]-1-(4-methoxybenzyl)-2-oxoethylcarbamoyl]-2-(1H-imidazol-4-yl)ethyl]benzamide] | 1 | 0.12 |
| COc1ccc(C[C@H](NC(=O)CCc2c[nH]cn2)C(=O)N2CC(O)(c3ccccc3C)C2)cc1 [Compound 11, N-[(S)-2-(3-hydroxy-3-o-tolylazetidin-1-yl)-1-(4-methoxybenzyl)-2-oxoethyl]-3-(1H-imidazol-4-yl)propionamide] | 8 | 4 |
| CCOC1(c2ccccc2C)CN(C(=O)[C@H](Cc2ccc(OC)cc2)NC(=O)CCc2c[nH]cn2)C1 [Compound 13, N-[(S)-2-(3-ethoxy-3-o-tolylazetidin-1-yl)-1-(4-methoxybenzyl)-2-oxoethyl]-3-(1H-imidazol-4-yl)propionamide] | 15 | 2 |
| COc1ccc(C[C@H](NC(=O)CCc2c[nH]cn2)C(=O)N2CC(OCC3CC3)(c3ccccc3C)C2)cc1 [Compound 14, N-[(S)-2-(3-cyclopropylmethoxy-3-o-tolylazetidin-1-yl)-1-(4-methoxybenzyl)-2-oxoethyl]-3-(1H-imidazol-4-yl)propionamide] | 15 | 2 |
| CCCCOC1(c2ccccc2C)CN(C(=O)[C@@H](Cc2ccc(OC)cc2)NC(=O)CCc2c[nH]cn2)C1 [Compound 15, N-[(R)-2-(3-butoxy-3-o-tolylazetidin-1-yl)-1-(4-methoxybenzyl)-2-oxoethyl]-3-(1H-imidazol-4-yl)propionamide] | 4 | 0.12 |
| CCCCOC1(c2ccccc2C)CN(C(=O)[C@H](Cc2ccc(OC)cc2)NC(=O)CCc2c[nH]cn2)C1 [Compound 16, N-[(S)-2-(3-butoxy-3-o-tolylazetidin-1-yl)-1-(4-methoxybenzyl)-2-oxoethyl]-3-(1H-imidazol-4-yl)propionamide] | 15 | 2 |
| CCOC1(c2ccccc2C)CN(C(=O)[C@@H](Cc2ccc(OC)cc2)NC(=O)CCc2c[nH]cn2)C1 [Compound 17, N-[(R)-2-(3-ethoxy-3-o-tolylazetidin-1-yl)-1-(4-methoxybenzyl)-2-oxoethyl]-3-(1H-imidazol-4-yl)propionamide] | 8 | 0.25 |
| CCCCOC1(c2ccccc2)CN(C(=O)[C@@H](CC2CCCCC2)NC(=O)CCc2c[nH]cn2)C1 [Compound 18, N-[(R)-2-(3-butoxy-3-phenylazetidin-1-yl)-1-cyclohexylmethyl-2-oxoethyl]-3-(1H-imidazol-4-yl)propionamide] | 8 | 8 |
| CCCCOC1(c2ccccc2)CN(C(=O)[C@@H](Cc2ccc(Cl)cc2Cl)NC(=O)CCc2c[nH]cn2)C1 [Compound 19, N-[(R)-2-(3-butoxy-3-phenylazetidin-1-yl)-1-(2,4-dichlorobenzyl)-2-oxoethyl]-3-(1H-imidazol-4-yl)propionamide] | 0.12 | 2 |
| COc1ccc(C[C@@H](NC(=O)CCc2c[nH]cn2)C(=O)N2CC(OCC3CC3)(c3ccccc3C)C2)cc1 [Compound 20, N-[(R)-2-(3-cyclopropylmethoxy-3-o-tolylazetidin-1-yl)-1-(4-methoxybenzyl)-2-oxoethyl]-3-(1H-imidazol-4-yl)propionamide] | 4 | 0.12 |
| CCCOC1(c2ccccc2C)CN(C(=O)[C@@H](Cc2ccc(OC)cc2)NC(=O)CCc2c[nH]cn2)C1 [Compound 22, N-[(R)-1-(4-methoxybenzyl)-2-oxo-2-(3-propoxy-3-o-tolylazetidin-1-yl)ethyl]-3-(1H-imidazol-4-yl)propionamide] | 10 | 0.12 |
| CCCCOC1(c2ccc(F)cc2)CN(C(=O)[C@@H](Cc2ccc(OC)cc2)NC(=O)CCc2c[nH]cn2)C1 [Compound 23, N-[(R)-2-[3-butoxy-3-(4-fluorophenyl)azetidin-1-yl]-1-(4-methoxybenzyl)-2-oxoethyl]-3-(1H-imidazol-4-yl)propionamide] | 1 | 0.06 |
| CCCCCOC1(c2ccccc2C)CN(C(=O)[C@@H](Cc2ccc(OC)cc2)NC(=O)CCc2c[nH]cn2)C1 [Compound 24, N-[(R)-1-(4-methoxybenzyl)-2-oxo-2-(3-pentyloxy-3-o-tolylazetidin-1-yl)ethyl]-3-(1H-imidazol-4-yl)propionamide] | 4 | 0.25 |
| CCCCCCOC1(c2ccccc2C)CN(C(=O)[C@@H](Cc2ccc(OC)cc2)NC(=O)CCc2c[nH]cn2)C1 [Compound 25, N-[(R)-2-(3-hexyloxy-3-o-tolylazetidin-1-yl)-1-(4-methoxybenzyl)-2-oxoethyl]-3-(1H-imidazol-4-yl)propionamide] | 8 | 1 |
| CCCCCC1(c2ccccc2)CN(C(=O)[C@@H](Cc2ccc(OC)cc2)NC(=O)CCc2c[nH]cn2)C1 [Compound 26, N-[(R)-1-(4-methoxybenzyl)-2-oxo-2-(3-pentyl-3-phenylazetidin-1-yl)ethyl]-3-(1H-imidazol-4-yl)propionamide] | 4 | 0.5 |
| CCCCC1(c2ccccc2)CN(C(=O)[C@@H](Cc2ccc(OC)cc2)NC(=O)CCc2c[nH]cn2)C1 [Compound 27, N-[(R)-2-(3-butyl-3-phenylazetidin-1-yl)-1-(4-methoxybenzyl)-2-oxoethyl]-3-(1H-imidazol-4-yl)propionamide] | 8 | 0.5 |
| COc1ccc(C[C@@H](NC(=O)CCc2c[nH]cn2)C(=O)N2CC(OCC3CC3)(c3ccccc3)C2)cc1 [Compound 28, N-[(R)-2-(3-cyclopropylmethoxy-3-phenylazetidin-1-yl)-1-(4-methoxybenzyl)-2-oxoethyl]-3-(1H-imidazol-4-yl)propionamide] | 8 | 1 |
| CCCCOC1(c2ccc(F)cc2)CN(C(=O)[C@@H](Cc2cccc(F)c2)NC(=O)CCc2c[nH]cn2)C1 [Compound 31, N-[(R)-2-[3-butoxy-3-(4-fluorophenyl)azetidin-1-yl]-1-(3-fluorobenzyl)-2-oxoethyl]-3-(1H-imidazol-4-yl)propionamide] | 4 | 0.5 |
| CCCCOC1(c2ccc(F)cc2)CN(C(=O)[C@@H](Cc2ccc(F)cc2)NC(=O)CCc2c[nH]cn2)C1 [Compound 32, N-[(R)-2-[3-butoxy-3-(4-fluorophenyl)azetidin-1-yl]-1-(4-fluorobenzyl)-2-oxoethyl]-3-(1H-imidazol-4-yl)propionamide] | 4 | 1 |
| CCCCOC1(c2ccccc2)CN(C(=O)[C@@H](Cc2ccc(F)cc2)NC(=O)CCc2c[nH]cn2)C1 [Compound 33, N-[(R)-2-(3-butoxy-3-phenylazetidin-1-yl)-1-(4-fluorobenzyl)-2-oxoethyl]-3-(1H-imidazol-4-yl)propionamide] | 2 | 0.5 |
| CCCCOC1(c2ccc(F)cc2)CN(C(=O)[C@@H](Cc2ccccc2)NC(=O)CCC2=NCC=N2)C1 [Compound 34, N-{(R)-1-benzyl-2-[3-butoxy-3-(4-fluoro-phenyl)azetidin-1-yl]-2-oxoethyl}-3-(4H-imidazol-2-yl)propionamide] | 2 | 1 |
| CCCCOC1(c2ccccc2)CN(C(=O)[C@@H](Cc2ccccc2)NC(=O)CCc2c[nH]cn2)C1 [Compound 35, N-[(R)-1-benzyl-2-(3-butoxy-3-phenylazetidin-1-yl)-2-oxoethyl]-3-(1H-imidazol-4-yl)propionamide] | 2 | 0.5 |
| CCCCOC1(c2ccccc2)CN(C(=O)[C@@H](Cc2ccc(OC)cc2)NC(=O)CCc2c[nH]cn2)C1 [Compound 36, N-[(R)-2-(3-butoxy-3-phenylazetidin-1-yl)-1-(4-methoxybenzyl)-2-oxoethyl]-3-(1H-imidazol-4-yl)propionamide] | 3 | 1 |
| CCCCCC1(c2ccccc2C)CN(C(=O)[C@@H](Cc2ccc(OC)cc2)NC(=O)CCc2c[nH]cn2)C1 [Compound 37, N-[(R)-1-(4-methoxybenzyl)-2-oxo-2-(3-pentyl-3-o-tolylazetidin-1-yl)ethyl]-3-(1H-imidazol-4-yl)propionamide] | 2 | 0.25 |
| CCCCOC1(c2ccccc2C)CN(C(=O)[C@@H](Cc2ccc(OC)cc2)NC(=O)CCc2c[nH]nn2)C1 [Compound 39, N-[(R)-2-(3-butoxy-3-o-tolylazetidin-1-yl)-1-(4-methoxybenzyl)-2-oxoethyl]-3-(1H-[1,2,3]triazol-4-yl)propionamide] | 2 | 8 |
